Laboratory results taken from patent US20250009737A1, “COMPOUNDS AND METHODS FOR THE TARGETED DEGRADATION OF ANDROGEN RECEPTOR” (Arvinas Operations, Inc., priority 2023, published 2025).
Like-named read-outs stand apart in the source and are kept apart here.

Experiments:
CYP2B6 mRNA = CYP2B6 mRNA induction in cryopreserved human hepatocytes; type: in vitro ADME; settings: 0.03-30 μM; for CYP2B6 mRNA Fold induction: human hepatocytes, 48 hours
Procedure: (§1) The induction potential of Compound A on CYP enzymes was assessed in cryopreserved human hepatocytes from three donors. Following treatment for with Compound A at concentrations of 0.03-30 μM for 48 hours, mRNA levels for CYP1A2, 2B6, 2C8, 2C9, 2C19, and 3A4 were determined by semiquantitative real-time polymerase chain reaction (PCR). Test article concentrations during 24-hour incubation were determined. The potential of Compound A to cause direct and time-dependent inhibition (TDI) of the activities of CYP1A2, 2B6, 2C8, 2C9, 2C19, 2D6, and 3A4 was evaluated in pooled human liver microsomes (HLM) at 0.2-15 μM. Probe substrate concentrations around Km were used for direction inhibition and initial TDI assays. For TDI assay, Compound A was pre-incubated with pooled HLM with and without NADPH for 30 minutes prior to incubation with a single concentration of probe substrate.

human hepatocytes = experiment: Hepatocyte viability, upfront MTT assay; type: cell-based; settings: 0.03-30 μM, after 2 days treatment
Procedure: Positive control inducers behaved as expected (Table 1). Maximal 2.5-8.8-fold induction (4-6% of positive control response) in CYP3A4 mRNA were found at 0.1-0.3 μM in all three donors, and 3.1-fold for CYP2C8 mRNA in one of three lots (donor 3 only) at 0.1 μM (28% of positive control response). The induction response was attenuated at higher concentrations (Table 1).

CYP1A2 = molecular target: T1, CYP1A2 (Homo sapiens, UniProt P05177); experiment: Direct and time-dependent CYP1A2 inhibition in pooled human liver microsomes; type: in vitro ADME; settings: pooled HLM, substrate Phenacetin 50 μM
T1 construct: evaluated in pooled human liver microsomes (HLM); from tissue; host or cells: pooled human liver microsomes
Procedure: as §1

CYP2B6 = molecular target: T2, CYP2B6 (Homo sapiens, UniProt P20813); experiment: Direct and time-dependent CYP2B6 inhibition in pooled human liver microsomes; type: in vitro ADME; settings: pooled HLM, substrate Bupropion 50 μM
T2 construct: evaluated in pooled human liver microsomes (HLM); from tissue; host or cells: pooled human liver microsomes
Procedure: as §1

CYP2C19 = molecular target: T3, CYP2C19 (Homo sapiens, UniProt P33261); experiment: Direct and time-dependent CYP2C19 inhibition in pooled human liver microsomes; type: in vitro ADME; settings: pooled HLM, substrate S-Mephenytoin 20 μM
T3 construct: evaluated in pooled human liver microsomes (HLM); from tissue; host or cells: pooled human liver microsomes
Procedure: as §1

CYP2D6 = molecular target: T4, CYP2D6 (Homo sapiens, UniProt P10635); experiment: Direct and time-dependent CYP2D6 inhibition in pooled human liver microsomes; type: in vitro ADME; settings: pooled HLM, substrate Bufuralol 5 μM
T4 construct: evaluated in pooled human liver microsomes (HLM); from tissue; host or cells: pooled human liver microsomes
Procedure: as §1

[1] = Metabolite profiling / stability in human liver microsomes; type: in vitro ADME
Procedure: (§2) Metabolite profiling was conducted in incubations of Compound A (2 and 10 μM) with HLM (up to 60 min), human hepatocyte suspension (up to 240 min) and human plasma (up to 360 min). In addition, Compound A (2 μM) was incubated with recombinant human CYP enzymes CYP1A2, CYP2A6, CYP2B6, CYP2C8, CYP2C9, CYP2C19, CYP2D6, CYP2E1, CYP3A4 and CYP3A5.
The DDI potential of Compound A as a victim via CYP mediated pathways was examined in HLM, human hepatocyte suspensions, and human recombinant CYP enzymes.

[2] = Metabolite profiling / stability in human plasma; type: in vitro ADME
Procedure: as §2

Caco-2 cell monolayers = experiment: Bidirectional permeability in Caco-2 cell monolayers; type: in vitro ADME; settings: 1% of BSA, 120 min incubation
Procedure: The potential of Compound A to act as an efflux transporter Pgp and BCRP as well as uptake transporter OATP1B1 and 1B3 were assessed in Caco-2 and single transporter over-expressed HEK29 cells, respectively.
The potential of Compound A to act as a substrate for Pgp and BCRP was examined in Caco-2 cells at the concentrations of 0.075, 0.75, 3.75 and 7.5 μM containing 1% of BSA. After 120 min incubation, the bidirectional permeability of Compound A was determined by LC-MS/MS. The involvement of Compound A as a substrate of OATP1B1 and OATP1B3 was assessed in the uptake transporter substrate assays at 4 concentrations (0.1, 0.5, 1 and 5 μM). Compound A in cell lysates was determined by LC-MS/MS.

OAT3 = molecular target: T5, OAT3 (Homo sapiens, UniProt Q8TCC7); experiment: OAT3 uptake transporter inhibition in MDCKII or HEK293 cells; type: in vitro ADME; settings: substrate E3S (1 μM)
T5 construct: expressed in transfected cells; host or cells: MDCKII or HEK293
Procedure: (§3) In addition, the inhibition potential against efflux transporters (P-glycoprotein (Pgp) and breast cancer resistance protein (BCRP)) and uptake transporters (MATE1, MATE2-K, OATP1B1, OATP1B3, OAT1, OAT3, and OCT2) was assessed using single transporter over-expressed cell monolayers (MDCK II or HEK293) or inside-out vesicles.
(§4) The potential of Compound A to inhibit Pgp or BCRP was tested for bidirectional transport of the probe substrates in Pgp or BCRP-expressed MDCKII and control monolayers at Compound A concentrations of 0.07-5 μM. Pgp and BCR inhibition were tested in inside-out membrane vesicles prepared from HEK293 overexpressing human Pgp and BCR at concentrations of 0.01-9 μM Compound A in the presence of 4 mM MgATP or MgAMP.

Pgp = Pgp (Homo sapiens, UniProt P08183); experiment: Pgp inhibition, bidirectional transport in Pgp-expressed MDCKII monolayers; type: in vitro ADME; design: expressed in transfected cells; host or cells: MDCKII
Procedure: as §3, §4

[3] = read-out: IC50, 30 min Pre-incubation
[4] = read-out: IC50, No Pre-incubation

Sequence of Pgp (P08183 whole entry): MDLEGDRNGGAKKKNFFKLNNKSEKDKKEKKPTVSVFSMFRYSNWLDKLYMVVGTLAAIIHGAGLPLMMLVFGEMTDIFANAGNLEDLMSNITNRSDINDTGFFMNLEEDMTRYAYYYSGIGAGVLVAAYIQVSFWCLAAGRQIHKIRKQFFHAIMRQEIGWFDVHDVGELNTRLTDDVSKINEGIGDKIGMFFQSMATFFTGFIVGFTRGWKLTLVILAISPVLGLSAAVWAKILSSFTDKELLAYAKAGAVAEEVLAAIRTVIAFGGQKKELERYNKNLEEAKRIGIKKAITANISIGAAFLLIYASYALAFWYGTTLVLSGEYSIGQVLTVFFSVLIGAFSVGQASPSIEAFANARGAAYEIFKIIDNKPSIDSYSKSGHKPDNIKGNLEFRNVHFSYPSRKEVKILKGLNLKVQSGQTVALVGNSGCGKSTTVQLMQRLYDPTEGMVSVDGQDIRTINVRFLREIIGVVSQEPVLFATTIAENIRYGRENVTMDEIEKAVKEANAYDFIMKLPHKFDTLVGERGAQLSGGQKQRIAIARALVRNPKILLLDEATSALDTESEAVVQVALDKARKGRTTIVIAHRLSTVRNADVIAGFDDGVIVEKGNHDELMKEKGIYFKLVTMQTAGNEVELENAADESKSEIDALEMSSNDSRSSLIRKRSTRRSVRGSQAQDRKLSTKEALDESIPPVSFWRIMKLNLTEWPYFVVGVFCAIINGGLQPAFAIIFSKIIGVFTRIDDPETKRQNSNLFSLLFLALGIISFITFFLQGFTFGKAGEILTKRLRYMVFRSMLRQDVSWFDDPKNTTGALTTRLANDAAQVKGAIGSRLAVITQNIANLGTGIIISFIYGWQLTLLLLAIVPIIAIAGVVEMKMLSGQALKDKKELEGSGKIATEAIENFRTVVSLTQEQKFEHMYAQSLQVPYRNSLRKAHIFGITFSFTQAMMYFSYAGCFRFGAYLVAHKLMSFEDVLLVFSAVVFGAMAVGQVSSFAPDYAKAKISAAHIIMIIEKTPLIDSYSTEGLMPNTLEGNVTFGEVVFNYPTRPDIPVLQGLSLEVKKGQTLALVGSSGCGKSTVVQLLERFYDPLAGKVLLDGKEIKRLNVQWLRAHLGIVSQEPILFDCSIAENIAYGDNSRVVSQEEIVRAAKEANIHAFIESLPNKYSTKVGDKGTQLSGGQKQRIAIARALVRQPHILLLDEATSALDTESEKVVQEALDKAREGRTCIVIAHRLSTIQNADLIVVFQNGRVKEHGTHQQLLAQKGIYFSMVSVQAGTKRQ
T1 sequence (P05177 whole entry): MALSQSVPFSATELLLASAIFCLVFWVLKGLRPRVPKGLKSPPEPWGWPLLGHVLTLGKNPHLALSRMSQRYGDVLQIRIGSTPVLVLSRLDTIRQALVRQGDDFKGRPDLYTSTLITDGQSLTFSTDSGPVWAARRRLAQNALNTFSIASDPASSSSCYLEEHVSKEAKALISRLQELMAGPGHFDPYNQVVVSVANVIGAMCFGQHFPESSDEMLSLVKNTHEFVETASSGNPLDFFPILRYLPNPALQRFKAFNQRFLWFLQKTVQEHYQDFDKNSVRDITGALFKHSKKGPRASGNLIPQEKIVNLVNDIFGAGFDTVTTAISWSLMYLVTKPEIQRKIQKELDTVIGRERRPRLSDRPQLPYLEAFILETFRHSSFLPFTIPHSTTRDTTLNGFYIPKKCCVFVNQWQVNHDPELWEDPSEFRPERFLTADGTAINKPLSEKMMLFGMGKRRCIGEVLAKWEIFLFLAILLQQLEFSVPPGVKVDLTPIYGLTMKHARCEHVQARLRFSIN
T2 sequence (P20813 whole entry): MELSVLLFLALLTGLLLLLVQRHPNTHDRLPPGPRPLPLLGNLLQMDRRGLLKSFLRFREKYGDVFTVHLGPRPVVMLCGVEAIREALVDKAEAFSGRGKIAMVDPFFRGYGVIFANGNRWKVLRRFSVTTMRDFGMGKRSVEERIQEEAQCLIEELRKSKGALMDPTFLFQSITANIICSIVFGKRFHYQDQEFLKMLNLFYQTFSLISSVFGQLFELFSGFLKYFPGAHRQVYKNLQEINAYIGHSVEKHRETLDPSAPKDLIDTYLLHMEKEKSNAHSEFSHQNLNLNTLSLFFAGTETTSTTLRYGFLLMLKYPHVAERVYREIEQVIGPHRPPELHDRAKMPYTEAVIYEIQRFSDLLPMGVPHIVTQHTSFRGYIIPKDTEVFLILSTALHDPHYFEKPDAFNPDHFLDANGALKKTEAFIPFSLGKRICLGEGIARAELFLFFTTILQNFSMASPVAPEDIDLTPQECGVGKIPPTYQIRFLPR
T3 sequence (P33261 whole entry): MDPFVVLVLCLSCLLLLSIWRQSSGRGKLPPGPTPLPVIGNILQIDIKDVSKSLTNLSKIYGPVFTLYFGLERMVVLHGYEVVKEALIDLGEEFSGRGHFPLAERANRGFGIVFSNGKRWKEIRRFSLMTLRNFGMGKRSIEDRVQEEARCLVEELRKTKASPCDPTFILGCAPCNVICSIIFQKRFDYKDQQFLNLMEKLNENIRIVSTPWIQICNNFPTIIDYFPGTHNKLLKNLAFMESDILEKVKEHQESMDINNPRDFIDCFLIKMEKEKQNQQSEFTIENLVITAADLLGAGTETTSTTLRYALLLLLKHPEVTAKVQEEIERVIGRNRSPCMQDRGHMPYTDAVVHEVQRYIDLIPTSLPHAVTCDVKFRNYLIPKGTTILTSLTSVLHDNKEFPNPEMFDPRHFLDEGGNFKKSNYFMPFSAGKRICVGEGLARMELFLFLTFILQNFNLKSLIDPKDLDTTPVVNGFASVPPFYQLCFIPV
T4 sequence (P10635 whole entry): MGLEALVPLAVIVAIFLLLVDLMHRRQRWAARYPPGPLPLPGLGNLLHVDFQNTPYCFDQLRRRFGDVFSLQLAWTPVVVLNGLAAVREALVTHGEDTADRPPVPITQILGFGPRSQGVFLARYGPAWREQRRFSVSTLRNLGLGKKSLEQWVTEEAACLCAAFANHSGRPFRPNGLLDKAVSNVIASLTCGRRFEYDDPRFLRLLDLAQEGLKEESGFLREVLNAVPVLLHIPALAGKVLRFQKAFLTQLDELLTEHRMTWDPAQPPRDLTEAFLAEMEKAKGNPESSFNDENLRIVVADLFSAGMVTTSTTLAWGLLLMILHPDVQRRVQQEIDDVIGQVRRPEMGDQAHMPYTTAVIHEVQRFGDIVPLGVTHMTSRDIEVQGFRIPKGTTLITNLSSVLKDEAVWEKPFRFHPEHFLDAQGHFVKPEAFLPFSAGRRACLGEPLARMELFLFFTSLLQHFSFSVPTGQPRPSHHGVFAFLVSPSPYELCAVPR
T5 sequence (Q8TCC7 whole entry): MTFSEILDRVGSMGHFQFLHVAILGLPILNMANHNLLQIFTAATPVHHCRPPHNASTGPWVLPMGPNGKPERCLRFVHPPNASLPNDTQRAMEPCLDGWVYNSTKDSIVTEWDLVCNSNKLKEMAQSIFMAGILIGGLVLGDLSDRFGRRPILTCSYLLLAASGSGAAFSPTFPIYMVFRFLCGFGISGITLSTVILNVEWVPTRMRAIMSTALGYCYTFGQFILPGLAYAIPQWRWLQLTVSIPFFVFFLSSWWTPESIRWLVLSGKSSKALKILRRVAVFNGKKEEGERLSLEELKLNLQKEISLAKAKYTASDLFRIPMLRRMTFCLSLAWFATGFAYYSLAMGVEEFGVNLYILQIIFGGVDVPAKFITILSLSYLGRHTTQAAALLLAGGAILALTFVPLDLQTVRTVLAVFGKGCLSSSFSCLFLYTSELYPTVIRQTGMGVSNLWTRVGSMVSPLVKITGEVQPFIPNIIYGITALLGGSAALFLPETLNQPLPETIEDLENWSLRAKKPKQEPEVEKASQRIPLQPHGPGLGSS

CYP2B6 mRNA Fold induction (CYP2B6 mRNA; Donor 1): <2 Fold
CYP2B6 mRNA Fold induction (CYP2B6 mRNA; Donor 2): <2 Fold
CYP2B6 mRNA Fold induction (CYP2B6 mRNA; Donor 3): <2 Fold
Induction of CYP2B6 mRNA (CYP2B6 mRNA; all three donors of human hepatocytes): did not induce
IC50 (CYP1A2; [3]): > 15 µM
IC50 (CYP1A2; [4]): > 15 µM
IC50 (CYP2B6; [3]): > 15 µM
IC50 (CYP2B6; [4]): > 15 µM
IC50 (CYP2C19; [3]): > 15 µM
IC50 (CYP2C19; [4]): > 15 µM
IC50 (CYP2D6; [3]): > 15 µM
IC50 (CYP2D6; [4]): > 15 µM
% Parent at 0 Min, HLM at 60 min ([1]; human liver microsomes, 60 min): 92.6%
Stability in HLM incubations ([1]; up to 60 min at 2 μM): relatively stable
% Parent at 0 Min, HP at 360 min [2]: 77.0%
Permeability in Caco-2 cell monolayers (Caco-2 cell monolayers): low permeability
IC50 (OAT3): > 3.75 µM
Pgp inhibition in the MDCKII bidirectional assays (Pgp; MDCKII bidirectional assays): not observed
inhibition at 5 µM (Pgp; Pgp-expressed MDCKII cell monolayers, probe Digoxin (5 μM), Pgp, Monolayers, substrate Digoxin (5 μM), read-out: Maximal % Inhibition): < 20%
IC50 (Pgp; Pgp, Monolayers, substrate Digoxin (5 μM)): > 5 µM
Structure (SMILES): COc1cc(O[C@H]2C(C)(C)[C@H](NC(=O)c3ccc(N4CCC(CN5CCN(c6ccc(C(=O)N[C@H]7CCC(=O)NC7=O)c(F)c6)CC5)CC4)cc3)C2(C)C)ccc1C#N [Compound A, 4-(4-((1-(4-(((1R,3R)-3-(4-cyano-3-methoxyphenoxy)-2,2,4,4-tetramethylcyclobutyl)carbamoyl)phenyl)piperidin-4-yl)methyl)piperazin-1-yl)-N—((S)-2,6-dioxopiperidin-3-yl)-2-fluorobenzamide]
Hepatocyte viability (human hepatocytes): no significant decrease
